Here are results for 20 compounds from ChEMBL document CHEMBL4296182, “CO-ADD screening of NIH NCI Diversity Set V”.

One assay has as its system Candida albicans. Put plainly: microbe, parasite or virus in culture. The settings on record: ATCC 90028, ASSAY_TEST Inhibition of Fungal Growth, detection method Absorption (OD530), plate type 384well, NBS, CORNING #3640.
The test system of another assay is HEK293. Put plainly: cells. Format: functional. The settings on record: Homo sapiens, ATCC CRL1573, HEK293; ASSAY_TEST Inhibition of Cell Viability; detection method Resazurin; Fluorescence (ex560/em590); MEDIA DMEM with 10% FBS; plate type 384well; TC; CORNING #3712; time 18 hr. On the technique in general: Resazurin is reduced to fluorescent resorufin, in cell work by metabolically active cells.

The subject of a further assay is Staphylococcus aureus. Put plainly: microbe, parasite or virus in culture. The settings on record: ATCC 43300, 18 h, ASSAY_TEST Inhibition of Bacterial Growth, detection method Absorption (OD600), MEDIA CAMHB, plate type 384well, NBS, CORNING #3640.
The subject of a further assay is Escherichia coli. Put plainly: microbe, parasite or virus in culture. The settings on record: ATCC 25922, 18 h, ASSAY_TEST Inhibition of Bacterial Growth, detection method Absorption (OD600), MEDIA CAMHB, plate type 384well, NBS, CORNING #3640.
Another assay deals with Acinetobacter baumannii. Put plainly: microbe, parasite or virus in culture. The settings on record: ATCC 19606, 18 h, ASSAY_TEST Inhibition of Bacterial Growth, detection method Absorption (OD600), MEDIA CAMHB, plate type 384well, NBS, CORNING #3640.
Another assay deals with Klebsiella pneumoniae. Put plainly: microbe, parasite or virus in culture. The settings on record: ATCC 700603, 18 h, ASSAY_TEST Inhibition of Bacterial Growth, detection method Absorption (OD600), MEDIA CAMHB, plate type 384well, NBS, CORNING #3640.
The test system of a further assay is Pseudomonas aeruginosa. Put plainly: microbe, parasite or virus in culture. The settings on record: ATCC 27853, 18 h, ASSAY_TEST Inhibition of Bacterial Growth, detection method Absorption (OD600), MEDIA CAMHB, plate type 384well, NBS, CORNING #3640.

Values after ≈ are worked out from the molar mass of the structure shown.

Description for Acinetobacter baumannii: Antibacterial activity against Acinetobacter baumannii ATCC 19606 (CO-ADD:GN_034); MIC in CAMBH media using NBS plates, by OD600
Description for Candida albicans: Antifungal activity against Candida albicans ATCC 90028 (CO-ADD:FG_001); MIC in YNB media using NBS plates, by OD630
Description for Cryptococcus neoformans: Antifungal activity against Cryptococcus neoformans H99 ATCC 208821 (CO-ADD:FG_002); MIC in YNB media using NBS plates, by Resazurin OD(600-570)
Description for Escherichia coli: Antibacterial activity against Escherichia coli ATCC 25922 (CO-ADD:GN_001); MIC in CAMBH media using NBS plates, by OD(600)
Description for Klebsiella pneumoniae: Antibacterial activity against Klebsiella pneumoniae MDR ATCC 70063 (CO-ADD:GN_003); MIC in CAMBH media using NBS plates, by OD(600)
Description for Pseudomonas aeruginosa: Antibacterial activity against Pseudomonas aeruginosa ATCC 27853 (CO-ADD:GN_042); MIC in CAMBH media using NBS plates, by OD(600)
Description for Staphylococcus aureus: Antibacterial activity against Staphylococcus aureus MRSA ATCC 43300 (CO-ADD:GP_020); MIC in CAMBH media, using NBS plates, by OD(600)

In the case of `Sc1nc2ccc(Cl)cc2s1`, the MIC was 10 µM (≈ 2.02 µg/mL) with Candida albicans; over 10 µM against Staphylococcus aureus; over 10 µM with Escherichia coli; over 10 µM against Acinetobacter baumannii; over 10 µM with Cryptococcus neoformans; over 10 µM against Klebsiella pneumoniae. In the assay on Pseudomonas aeruginosa, this compound showed an MIC of over 10 µM. The cytotoxic concentration (CC50) (as a rule, the concentration giving 50% cytotoxicity) in the assay on HEK293 is over 10 µM.

In the case of `COC(=O)C1(F)C(=O)NC(=O)NC1OC` (stereo not given), the MIC was over 10 µM in the assay with Candida albicans; 5 µM (≈ 1.1 µg/mL) against Staphylococcus aureus; over 10 µM against Escherichia coli; over 10 µM against Acinetobacter baumannii; over 10 µM against Cryptococcus neoformans; over 10 µM against Klebsiella pneumoniae. This compound also showed an MIC in the assay on Pseudomonas aeruginosa of over 10 µM. In the assay with HEK293, this compound gave a half-maximal cytotoxic concentration (CC50) of over 10 µM.

As for `C=Cc1cc(OC)c2c(c1)c(=O)oc1c2cc(OC)c2c(O)ccc(C3OC(C)C(O)C(C)(O)C3O)c21` (stereo not given), the MIC was over 10 µM against Candida albicans; 0.156 µM (≈ 0.0795 µg/mL) against Staphylococcus aureus; over 10 µM in the assay on Escherichia coli; over 10 µM in the assay on Acinetobacter baumannii; over 10 µM with Cryptococcus neoformans; over 10 µM against Klebsiella pneumoniae. Besides, the MIC in the assay with Pseudomonas aeruginosa is over 10 µM. The midpoint of cytotoxicity in the assay with HEK293, the CC50, lay at 1.85 µM.

On to `CN(C)c1ccc(/N=N/c2ccccn2)cc1`, for which the MIC against Candida albicans was 10 µM (≈ 2.26 µg/mL); in the assay on Staphylococcus aureus it was over 10 µM; in the assay with Escherichia coli, over 10 µM; in the assay with Acinetobacter baumannii it was over 10 µM; against Cryptococcus neoformans, over 10 µM; against Klebsiella pneumoniae, over 10 µM. Besides, the MIC against Pseudomonas aeruginosa is over 10 µM. In addition, in the assay with HEK293, the CC50 is over 10 µM.

As to `CC1=C(O)C(=O)C=C2C1=CC=C1[C@@]2(C)CC[C@@]2(C)[C@@H]3C[C@](C)(C(=O)O)CC[C@]3(C)CC[C@]12C` [CELASTROL], the MIC against Candida albicans is over 10 µM; in the assay with Staphylococcus aureus it was 2.5 µM (≈ 1.13 µg/mL); in the assay with Escherichia coli, over 10 µM; in the assay on Acinetobacter baumannii, over 10 µM; against Cryptococcus neoformans, over 10 µM; in the assay with Klebsiella pneumoniae it was over 10 µM. In the assay with Pseudomonas aeruginosa, this compound displayed an MIC of over 10 µM. In the assay on HEK293, this compound showed a CC50 of 0.837 µM.

As for `Cn1ccc(=Nc2ccc(NC(=O)c3ccc(/N=c4\ccn(C)c5ccc([N+](=O)[O-])cc45)cc3)cc2)cc1`, the MIC is over 10 µM with Candida albicans; 10 µM (≈ 5.05 µg/mL) in the assay with Staphylococcus aureus; 10 µM (≈ 5.05 µg/mL) with Escherichia coli; over 10 µM in the assay on Acinetobacter baumannii; 5 µM (≈ 2.52 µg/mL) in the assay on Cryptococcus neoformans; over 10 µM against Klebsiella pneumoniae. The compound also returned an MIC against Pseudomonas aeruginosa of over 10 µM. Further, the CC50 in the assay with HEK293 is over 10 µM.

For `O=[N+]([O-])c1ccc(/C=[N+](\[O-])CCO)o1`, the MIC in the assay on Candida albicans was over 10 µM; against Staphylococcus aureus, over 10 µM; in the assay on Escherichia coli, 10 µM (≈ 2 µg/mL); in the assay on Acinetobacter baumannii it was over 10 µM; against Cryptococcus neoformans, over 10 µM; against Klebsiella pneumoniae, over 10 µM. The compound also returned an MIC against Pseudomonas aeruginosa of over 10 µM. The CC50 in the assay on HEK293 is over 10 µM.

As for `Cn1cnc([N+](=O)[O-])c1S(=O)(=O)Oc1cccc2ccccc12`, the MIC in the assay on Candida albicans was at most 0.0781 µM; with Staphylococcus aureus, over 10 µM; in the assay with Escherichia coli it was over 10 µM; with Acinetobacter baumannii, over 10 µM; with Cryptococcus neoformans, over 10 µM; in the assay on Klebsiella pneumoniae, over 10 µM. This compound also showed an MIC in the assay on Pseudomonas aeruginosa of over 10 µM. In the assay on HEK293, this compound returned a CC50 of 8.21 µM.

On to `O=C1C(Cl)=C(NCCc2ccccc2)C(=O)c2ccccc21`, for which the MIC was 0.625 µM (≈ 0.195 µg/mL) against Candida albicans; over 10 µM against Staphylococcus aureus; over 10 µM against Escherichia coli; over 10 µM in the assay on Acinetobacter baumannii; 0.625 µM (≈ 0.195 µg/mL) in the assay with Cryptococcus neoformans; over 10 µM against Klebsiella pneumoniae. The MIC against Pseudomonas aeruginosa is over 10 µM. Further, the CC50 in the assay on HEK293 is over 10 µM.

For `CC(C)c1ccc2c(c1)CCC1C(C)(CN)CCCC21C` (stereo not given), the MIC in the assay with Candida albicans, against Staphylococcus aureus, with Escherichia coli, against Acinetobacter baumannii, with Cryptococcus neoformans and in the assay on Klebsiella pneumoniae was over 10 µM in each case. In the assay on Pseudomonas aeruginosa, this compound gave an MIC of over 10 µM. For the same compound, half-maximal cytotoxicity in the assay on HEK293 (CC50) was put at 8.3 µM.

Take `Cc1ccc(C=C2C(Cl)=C(Cl)C(Cl)=C2Cl)cc1`: the MIC in the assay with Candida albicans, against Staphylococcus aureus, with Escherichia coli, in the assay with Acinetobacter baumannii, with Cryptococcus neoformans and against Klebsiella pneumoniae was over 10 µM each time. The MIC in the assay on Pseudomonas aeruginosa was over 10 µM. For the same compound, the CC50 with HEK293 is over 10 µM.

`COC12C(COC(N)=O)C3=C(C(=O)C(C)=C(N)C3=O)N1CC1C2N1C` (stereo not given): the MIC in the assay on Candida albicans is over 10 µM; in the assay with Staphylococcus aureus it was 0.156 µM (≈ 0.0544 µg/mL); with Escherichia coli, 5 µM (≈ 1.74 µg/mL); against Acinetobacter baumannii, over 10 µM; with Cryptococcus neoformans, over 10 µM; against Klebsiella pneumoniae, over 10 µM. Also, in the assay with Pseudomonas aeruginosa, the MIC is over 10 µM. This compound also came in with a CC50 in the assay on HEK293 of over 10 µM.

For `CCC(C)c1cnc(CC(C)C)c(=O)n1O` (stereo not given), the MIC with Candida albicans, in the assay with Staphylococcus aureus, against Escherichia coli, in the assay with Acinetobacter baumannii, with Cryptococcus neoformans and in the assay on Klebsiella pneumoniae was over 10 µM each time. The same compound displayed an MIC in the assay with Pseudomonas aeruginosa of over 10 µM. Moreover, the CC50 in the assay with HEK293 is over 10 µM.

In the case of `CNc1ncn(-c2c(C)cccc2C)c(=O)n1`, the MIC in the assay on Candida albicans, in the assay on Staphylococcus aureus, in the assay with Escherichia coli, in the assay on Acinetobacter baumannii, in the assay on Cryptococcus neoformans and with Klebsiella pneumoniae was over 10 µM throughout. For the same compound, in the assay on Pseudomonas aeruginosa, the MIC is over 10 µM. In addition, the CC50 with HEK293 was over 10 µM.

In the case of `O=C(Nc1ccc(C2=NCCN2)cc1)c1ccc(C(=O)Nc2ccc(C3=NCCN3)cc2)c(Cl)c1`, the MIC against Candida albicans, in the assay on Staphylococcus aureus, in the assay on Escherichia coli, against Acinetobacter baumannii, in the assay on Cryptococcus neoformans and in the assay with Klebsiella pneumoniae was over 10 µM throughout. Further, the MIC in the assay on Pseudomonas aeruginosa was over 10 µM. In the assay with HEK293, the CC50 is over 10 µM.

`Nc1nc(N)c2c(ccc3[nH]ccc32)n1`: the MIC in the assay on Candida albicans, against Staphylococcus aureus, against Escherichia coli, in the assay on Acinetobacter baumannii, against Cryptococcus neoformans and against Klebsiella pneumoniae was over 10 µM in each case. This compound also yielded an MIC against Pseudomonas aeruginosa of over 10 µM. In addition, the CC50 in the assay with HEK293 is over 10 µM.

For `Cc1cnc(SCc2ccc(Cl)cc2Cl)nc1O`, the MIC against Candida albicans, with Staphylococcus aureus, in the assay with Escherichia coli, in the assay on Acinetobacter baumannii, in the assay with Cryptococcus neoformans and against Klebsiella pneumoniae was over 10 µM each time. In the assay with Pseudomonas aeruginosa, this compound displayed an MIC of over 10 µM. The same compound yielded a CC50 in the assay on HEK293 of over 10 µM.

Consider `Nc1ncnc2c1ncn2C1OC(COS(N)(=O)=O)C(O)C1O` (stereo not given), for which the MIC is over 10 µM against Candida albicans; 5 µM (≈ 1.73 µg/mL) with Staphylococcus aureus; over 10 µM against Escherichia coli; over 10 µM in the assay on Acinetobacter baumannii; over 10 µM against Cryptococcus neoformans; over 10 µM against Klebsiella pneumoniae. In addition, the MIC in the assay on Pseudomonas aeruginosa is over 10 µM. In addition, in the assay on HEK293, the CC50 is 0.227 µM.

Take `Nc1ccc(Cn2ccc3c4c(N)nc(N)nc4ccc32)cc1`: the MIC was over 10 µM in the assay with Candida albicans; 1.25 µM (≈ 0.38 µg/mL) in the assay on Staphylococcus aureus; 1.25 µM (≈ 0.38 µg/mL) with Escherichia coli; over 10 µM against Acinetobacter baumannii; over 10 µM with Cryptococcus neoformans; 5 µM (≈ 1.52 µg/mL) in the assay on Klebsiella pneumoniae. In addition, in the assay on Pseudomonas aeruginosa, the MIC was 5 µM (≈ 1.52 µg/mL). Also, in the assay with HEK293, the CC50 is over 10 µM.

Regarding `Cc1c(N2CCCC2)cc2c(c1NC(=O)c1ccccc1Cl)C(C)(C)CC2(C)C`, the MIC against Candida albicans, against Staphylococcus aureus, against Escherichia coli, in the assay on Acinetobacter baumannii, with Cryptococcus neoformans and in the assay on Klebsiella pneumoniae was over 10 µM throughout. In the assay on Pseudomonas aeruginosa, this compound gave an MIC of over 10 µM. In the assay on HEK293, this compound yielded a cytotoxic concentration (CC50) of over 10 µM.
